PMC9256669, “Monomethyl auristatin antibody and peptide drug conjugates for trimodal cancer chemo-radio-immunotherapy” (Nature Communications, 2022)
Several values for one entry are separate records, joined by “and”; a condition that tells them apart may be missing. Identical values can stand only once. Entries after “also recorded” stand apart in the source; their conditions may differ. Like-named read-outs stand apart in the source and are kept apart here. Non-standard residues stand in square brackets, D forms with d. Residues, ends and D or L forms follow the SMILES beside them. *: point of attachment. Dolaproine = CO[C@@H]([C@@H]1CCCN1)[C@@H](C)C(=O)O; Dil = CC[C@H](C)[C@H](NC)[C@@H](CC(=O)O)OC; X1 = C[C@@H](N*)[C@@H](O)c1ccccc1; NMeV = CN[C@H](C(=O)O)C(C)C

How the values were obtained:
Detroit 562 = assay: Cytotoxicity, Alamar Blue assay; format: cell-based, human; details: Detroit 562, 72 h drug exposure, one value per biological replicate, read-out: IC50 values
Description: (§1) Murine colorectal (MC38 (ENH204-FP)) cancer cell lines were obtained from Kerafast. Murine head and neck MOC1 and MOC2 were generously provided by Dr. R. Uppaluri. CAL27 PIK3CA H1047R expressing cells and 4MOSC1 cells were generated in Dr. Gutkind’s laboratory and previously characterized[42],[55]. […] MC38 cells were cultured in DMEM supplemented with 10% FBS, 1 mM sodium pyruvate (Gibco), 1% non-essential amino acids (Gibco), and 10 mM HEPES (Gibco). MOC1 and MOC2 cells were cultured in IMDM (Lonza)/F-12K nutrient mixture at a 2:1 mixture with 5% FBS, 5 ng/ml EGF (EMD Millipore), 400 ng/ml hydrocortisone (Sigma), and […] insulin (Sigma). On receipt, each cell line was expanded, cryopreserved as low passage stocks, and routinely tested for mycoplasma. Cisplatin (Enzo Biosciences), paclitaxel (Sigma), and MMAE (Concortis) were reconstituted in DMSO. Clinical-grade CDX3379 was provided by Celldex. Clinical grade cetuximab (Erbitux, Lilly Medical) was obtained from UCSD Moores Cancer Center Pharmacy.
(§2) Cells were plated in 96-well plates and exposed to a drug concentration range for 72 h. Alamar Blue was added to the cells and allowed to incubate for 2–4 h at 37 °C. Plates were analyzed using a plate reader with fluorescence measured at 560 nm. Fractional survival was normalized to untreated control cell fluorescent values. Drug IC50 was calculated using Prism software (GraphPad, La Jolla, CA). Cell viability, cytotoxicity and apoptosis were also measured by ApoTox-Glo Triplex Assay (Promega).

CAL27 = assay: Cytotoxicity, Alamar Blue assay; format: cell-based, human; details: 72 h drug exposure, one value per biological replicate, read-out: IC50 values
Description: as §1, §2

B16 tumors [1] = details: status at the day printed in the same line, one line per mouse
Description: (§11) MOC1, B16, LL/2, and MC38 tumor cells were injected subcutaneously into the hindlimbs of 6-week-old female C57BL/6 albino mice in 100 µl of 1:1 Matrigel (BD) and PBS solution. Fractionated IR was delivered focally to the tumor-bearing hindlimbs (3 Gy to MC38 tumors and 5 Gy to LL/2 and B16 tumors) as indicated in figure legends using a PXI X-RAD 225 XL irradiator at maximal dose rate of 3 Gy/min with a beam-conditioning aluminum filter (Precision X-ray Irradiation). For RAG1 KO studies, 6-week-old female Rag1^tm1Mom mice were injected subcutaneously with tumor cells in their hindlimbs (Jackson Labs). For CD8 depletion studies, mice were i.p. injected with anti-CD8 (BioXCell #BE0117) at 10 mg/kg on days −6, −5 and −4 tumor cell implant and then weekly starting on day after tumor cells were injected or control antibody. […] Tumor volumes were measured and calculated using the formula as ½ * length * width^2. Mice were sacrificed when tumor volume reached >1500 mm^3, maximal tumor volume approved on our protocol for subcutaneous tumors.

B16 tumors [2] = assay: Subcutaneous tumor therapy, ADC monotherapy, mouse survival; format: in vivo, C57BL/6 mice
Description: as §11

[3] = Tumor drug measurement (MMAE by LC-MS/MS) after CDX3379-MMAE; format: in vivo, mouse; design: unit not given here; details: orthotopic CAL27 tongue xenografts (methods: CAL27 PIK3CA H1047R cells, NOD SCID), 2.5 nmoles CDX3379-MMAE i.v., tumors harvested 48 h, one value per tumor, vehicle 1.606, 2.873, a reviewer reads roughly 100 nM
Description: For CDX3379-MMAE drug measurements, 6-week-old female NOD SCID (University of California San Diego Animal Care Program) were injected orthotopically into the tongue with 150,000 CAL27 PIK3CA H1047R expressing cells in 20 µl of DMEM. After 10 days, mice were intravenously (i.v.) injected through the tail vein with 2.5 nmole of CDX3379-MMAE in 50 µl of PBS. […] Tumors were excised on days indicated in figure legends, weighed, and homogenized in 10 v/w of 2% acetic acid in 1:1 acetonitrile:water with a point sonicator (Fisher Scientific) using an amplitude range of 5–15% for 20 s on ice. Homogenates were centrifuged ([…], 10 min), supernatants collected for drug concentration measurements using LC–MS/MS. Drug concentration was determined by LC–MS/MS with Luna-2 C18 column and Agilent Trap XCT mass spectrometer. For MMAE tissue concentrations, integrated ion currents for m/z 682.4, 496.4 and m/z 686.4, 506.4 extracted from fragmented m/z 740.4 and 718.4, respectively, were combined. The total ion current was fit to a standard curve generated for each drug to quantitate tissue drug concentration.

B16 tumors [4] = assay: Subcutaneous tumor therapy, CDX3379-MMAE or CDX3379-MMAF with IR, mouse survival; format: in vivo, C57BL/6 mice
Description: as §11

[5] = Blood clearance of Cy5-labeled CDX3379-MMAE (blood Cy5); format: in vivo, Nude mice; details: immune-deficient and immune-competent mice, i.v. Cy5-labeled CDX3379-MMAE, Cy5 as surrogate marker
Description: All animal work was done in compliance with the University of California San Diego Institutional Animal Use and Care Committee under protocol #S15290. Mice were housed in individually ventilated and micro-isolator cages supplied with acidified water and fed 5053 irradiated PicoLab Rodent Diet 20. Temperature for laboratory mice in housing was 18–23 °C with humidity 40–60%. Housing room is maintained on a 12-h light/dark cycle. […] For imaging, mice were anesthetized (1:1 mixture of 100 mg/ml of ketamine and 5 mg/ml of midazolam). Animals were imaged using a Maestro Small Animal Imager (CRI) with excitation filter of 607/36 and 633 nm long pass emission filter with dichroic filter tuned to 670 nm for Cy5 images only. Imaging was done both with skin on and after skin removal to decrease autofluorescence and scattering. Exposure time for Cy5 signal capture for tumor models was as follows: CAL27 for 800 ms, MOC1 for 200 ms and MOC2 for 1500 ms.

MC38 tumors = tested on: MC38 tumors
From the text: (§3) LL/2 cells treated with dose range of MMAE overnight and then […] in drug free media for 7-10 days to allow for visualized colonies to form.
(§4) Statistical significances calculated using one-way ANOVA with Tukey’s multiple comparisons test. 0.9 b) Cell cycle analysis […]
(§5) of MMAE treated LL/2 cells, mean ± SD, n=2. […]
(§6) experiments. c) Clonogenic survival of LL/2 cells treated with MMAE and 2 Gy (SF2). Cell Days viability normalized to non-irradiated cells for each drug condition and plotted as mean fractional survival ± SEM, n=6. Statistical significances calculated using one-way ANOVA with Sidak’s multiple comparisons test. d) Tumor volumes (n=10) and mouse body weights (n=5) of mice from experiments in Fig. 3e. Tumor volumes plotted as mean volume of surviving mice ± SEM.
(§7) Mouse body weight were normalized to each mouse’s weight on day 0, i.e. tumor implantation.
(§8) Data plotted as mean fractional body weight ± SEM. e) Mouse body weights of mice (n=5) from experiments in Fig. 4h were normalized to each mouse’s weight on day of tumor implantation.
(§9) Data is plotted as individual normalized body weights. f) Mouse body weights of mice from experiments in Fig. 5e, f were normalized to each mouse’s weight on day of tumor implantation.
(§10) Source data are provided in Source Data file.

LL/2 tumors = details: for Mouse survival, status: individual mice, status at the day, Figure 3e
From the text: as §3, §4, §5, §6, §7, §8, §9, §10

B16 tumors [6] = tested on: B16 tumors
From the text: as §3, §4, §5, §6, §7, §8, §9, §10

[7] = 10 nmoles ACPP-MMAE x 2 doses, no IR
[8] = ACPP-MMAE alone, individual mice, status at the day, Figure 3e
[9] = 10 nmoles ACPP-MMAE x 2 doses + IR 5 Gy/day x 3

## CC[C@H](C)[C@@H]([C@@H](CC(=O)N1CCC[C@H]1[C@H](OC)[C@@H](C)C(=O)N[C@H](C)[C@@H](O)c1ccccc1)OC)N(C)C(=O)[C@@H](NC(=O)[C@@H](NC)C(C)C)C(C)C [MMAE, monomethyl auristatin E] (H-[NMeV]V[Dil][Dolaproine]-X1)
Detroit 562
  IC50: 0.253 nM and 0.25 nM and 0.189 nM and 0.195 nM
CAL27
  IC50: 0.235 nM and 0.239 nM (2×) and 0.237 nM and 0.177 nM and 0.185 nM

## CDX3379-MMAE: anti-HER3 antibody CDX3379 with 4 MMAE per antibody via MC-VC-PABC linker, labeled with Cy5
B16 tumors [1]; CDX3379-MMAE + IR + αPD1
  Survival curve, status: 0
B16 tumors [1]; CDX3379-MMAE + IR
  Survival curve, status: 0 and 1
B16 tumors [2]
  anti-tumor activity as measured by mouse survival: modest anti-tumor activity
[3]
  Tumor MMAE concentration: 124.8 and 143.8 and 123.3 and 91.37
B16 tumors [4]; B16, 2.5 nmoles ADC x 2 doses + IR 5 Gy x 3
  tumor control and survival, + IR: prolonged tumor control and survival; also recorded: superior to CDX3379-MMAF
B16 tumors [4]; with IR, individual mice, status at the day, Figure 3h
  Mouse survival, status: 1 and 0
[5]
  time at which blood Cy5 signal returned to background fluorescence: ≤ 7 days

## cyclo(RGD)fc-MC-HN-peg8-e9-oPLGC(Me)AG-r9-c-(MC-VC-PABC-MMAE)-CONH2 [ACPP-MMAE]
MC38 tumors; 10 nmoles ACPP-MMAE x 2 doses + IR 3 Gy/day x 3
  survival and tumor control, + IR: long-term survival and tumor control
MC38 tumors; [7]
  anti-tumor efficacy, monotherapy: lacked significant anti-tumor efficacy
MC38 tumors; [8]
  Mouse survival, status: 1
LL/2 tumors; [9]
  survival and tumor control, + IR: modestly prolonged mouse survival and tumor control
LL/2 tumors; [7]
  anti-tumor efficacy, monotherapy: lacked significant anti-tumor efficacy
LL/2 tumors; ACPP-MMAE + IR
  Mouse survival, status: 1
LL/2 tumors; ACPP-MMAE alone
  Mouse survival, status: 1
B16 tumors [6]; [9]
  survival and tumor control, + IR: long-term survival and tumor control
B16 tumors [6]; [7]
  anti-tumor efficacy, monotherapy: lacked significant anti-tumor efficacy
B16 tumors [6]; [8]
  Mouse survival, status: 1
